Measurements reported in patent US20130072531A1, “SOLID DISPERSION COMPRISING AN ANTI-HIV AGENT” (AiCuris GmbH & Co. KG, priority 2009, published 2013).

How the values were obtained:
[1] = X-ray diffraction of solid dispersions at T0 and after storage; format: physicochemical; conditions: after 3 weeks at 40° C., 75% RH
Procedure: The spray dried particles were collected in a reservoir attached to a cyclone, cooled down to room temperature and stored in sealed vials (room temperature, ambient relative humidity (RH)) prior to their characterisation at T0. After characterisation at T0, the spray dried solids were stored in open vials for 2 weeks (3 weeks for Comparative Example 1) in desiccators at 25° C., 60% RH and 40° C., 75% RH. X-ray diffraction (D-500, Siemens, Germany) with CuKα radiation (0.154 nm) was performed on physical mixtures of the compound of formula (I) with HPMC ES, HPC LF, HPMCP HP-50 and PVP K30 and the corresponding solid dispersions (at T0 and after 2 weeks […]) storage at both conditions), as well as spray dried compound of formula (I) without polymer (storage for three weeks under the two conditions). The angular range (2θ) varied from 15 to 60° with steps of 0.02° and the measuring time was 1 s/step.

[2] = Storage experiments, visual inspection; format: physicochemical; conditions: open vials, 2 weeks (3 weeks Comparative Example 1), 25° C., 60% RH and 40° C., 75% RH
Procedure: The spray dried particles were collected in a reservoir attached to a cyclone, cooled down to room temperature and stored in sealed vials (room temperature, ambient relative humidity (RH)) prior to their characterisation at T0. After characterisation at T0, the spray dried solids were stored in open vials for 2 weeks (3 weeks for Comparative Example 1) in desiccators at 25° C., 60% RH and 40° C., 75% RH.

[3] = Solubility studies: dissolution, paddle method, sodium laurylsulphate 0.5% (w/v) medium; format: physicochemical
Procedure: The compound of formula (I) both in crystalline form and spray dried (at T0 and after 3 weeks […]) storage at 25° C., 60% RH and 40° C., 75% RH respectively) as well as the solid dispersions of Examples 1 to 4 (at T0 and after 2 weeks […]) storage at 25° C., 60% RH and 40° C., 75% RH respectively) and Example 5 at T0 only were introduced in a VK 7000 dissolution system (VanKel, New Jersey, USA), using the paddle method, combined with a VK 8000 automatic sampling station (n=3). Sodium laurylsulphate 0.5% (w/v) was used as dissolution medium. The temperature of the medium (900 ml) was kept at 37±0.5 ° C., while the rotational speed of the paddles was set at 100 rpm. Samples (filtered using Full Flow Filters (Varian) -35 μm) of 5 ml were withdrawn at 5, 10, 15, 20, 30, 45 and 60 min and spectrophotometrically analysed at 240 nm by UV-spectrophotometry, type UV-1650 (Shimadzu, Deurne, Belgium) (w/w dilution if necessary), using an appropriate calibration curve. Each vessel contained approximately 150 mg of the compound of formula (I).

[4] = system: wild-type and resistant HIV strains; assay: Activity against HIV strains (experiences so far)
[5] = Water solubility of crystals (experiences so far); format: physicochemical

Compound	formation of the crystalline form of the compound of formula (I) (X-ray) [1]	storage stability to visual inspection (colouration) [2]	compound of formula (I) dissolved after 60 minutes after storage ([3]; after storage at 40° C., 75% RH for three weeks, 60 min) [%]	compound of formula (I) dissolved / released after 30 minutes ([3]; fresh (T0), sodium laurylsulphate 0.5% (w/v), 900 ml, 37 °C, 100 rpm, 30 min)	activity against wild-type and resistant HIV strains [4]	water solubility of crystals [5]	compound of formula (I) dissolved / released after 60 minutes ([3]; fresh (T0), sodium laurylsulphate 0.5% (w/v), 900 ml, 37 °C, 100 rpm, 60 min)
O=C1CN(C(=O)c2cc(-c3cc(F)cc(Cl)c3)n(-c3ccc(F)c(Cl)c3)n2)CN1 [Comparative Example 1]	formation of a large amount of the crystalline form	storage stable	35	about 60%	–	–	–
O=C1CN(C(=O)c2cc(-c3cc(F)cc(Cl)c3)n(-c3ccc(F)c(Cl)c3)n2)CN1 [compound of formula (I)]	–	–	–	–	highly active	only sparingly water-soluble	about 40%
